Assay results: publication doi:10.1101/2020.10.13.337584v1 (bioRxiv, 2020)

Columns and labels:
[1] = tested on: SARS-CoV2 (SARS CoV-2 USA_WA1/2020) in VERO E6 cells; format: cell-based
[2] = Health-related side-effects after daily intranasal administration; format: in vivo; conditions: 0.1 mg/Kg intranasal daily for 10 days, BALB/C mice

**Q.** What does the source list for CC(C)[C@H](NC(=O)CNC(=O)[C@H](CC(N)=O)NC(=O)[C@@H](NC(=O)[C@@H]1CCCN1C(=O)[C@H](CCC(N)=O)NC(=O)[C@H](Cc1ccccc1)NC(=O)CNC(=O)[C@H](Cc1ccc(O)cc1)NC(=O)CCCC[C@@H]1SC[C@@H]2NC(=O)N[C@@H]21)[C@@H](C)O)C(=O)NCC(=O)N[C@@H](Cc1ccc(O)cc1)C(=O)N[C@@H](CCC(N)=O)C(=O)N1CCC[C@H]1C(=O)O [KEpTide 1]?
**A.** Grey density (1:20) of crystal violet staining of agar monolayer [1]: 34 ± 32.73; Skin roughness or diarrhea at the end of day 10 [2]: did not see other health issue; Effect on heart rate ([2]; n=6 per group, p = 0.0758): did not cause any loss; Effect on respiratory health (oxygen saturation) ([2]; n=6 per group, p = 0.3217): did not cause any loss; Effect on body temperature ([2]; n=6 per group, p = 0.5541): did not cause any loss
